{"source": "patent US12414948B2", "about": "“Methods” (INTRA-CELLULAR THERAPIES, INC., priority 2022, dated 2025)", "key": {"[1]": {"system": "serum cytokines IL-1b, IL-6, TNF-alpha, IL-10", "test": "Serum cytokine protein (Multiplex MSD V-Plex) after LPS and lumateperone", "assay_type": "in vivo, mouse", "conditions": "2 h", "description": "All other reagents are obtained in the highest purity available from Sigma-Aldrich (St. Louis, MO) unless otherwise noted. […] Some rodents are given a cotreatment with a subcutaneous (SC) injection of lipopolysaccharide (LPS, 500 μg/kg; Sigma-Aldrich, ref #0127:B8) diluted in 0.9% injectable saline while control group animals receive injections of all vehicles matching the experimental conditions. […] On day 2, either no injection for naïve rats, or saline or LPS is injected (1 mg/kg, SC).\nTissue Collection. […] Rats are euthanized 18 hours after LPS injection for sample collection. Hippocampi from mice and rats are rapidly dissected under RNAse-free conditions and placed in 1.5 mL Eppendorf tubes. When appropriate, samples are snap frozen in liquid nitrogen prior to storage at −80° C. until further analysis. Trunk blood is collected from mice into serum collection tubes, allowed to clot at room temperature for 1 hour, then centrifuged at 1,500 g for 10 minutes at 4° C.\nMultiplex Assays. In mouse serum, protein levels of IL-1b, IL-6, IL-10 and TNF-alpha are measured using a V-Plex Meso Scale Discovery (MSD) Multiplex spot assay Mouse Neuroinflammation 1 panel (Meso Scale Diagnostics, Rockville, MD). All samples are run in duplicates or triplicates according to manufacturer instructions and analyzed with MSD Discovery Workbench software (Meso Scale Diagnostics).\nAn additional experimental group receiving an injection with lumateperone alone is included as an additional control. Protein concentration is measured using the Multiplex MSD assay V-Plex technology. Results are expressed in pg/mL, except for IL-6, which is measured in ng/mL."}, "[2]": {"system": "hippocampal microglia mRNA (Il1b, Il6, Tnfa, Nlrp3, Csf1r)", "test": "mRNA (RT-qPCR) in microglia enriched from rat hippocampus after LPS", "assay_type": "in vivo", "conditions": "rats, LPS 500 μg/kg; label LPS = LPS + vehicle, label Luma = Luma 3 mg/kg 16 h after LPS; microglia isolated +18 h; normalized to control (Dct)", "description": "Microglia Enrichment. […] Brain tissue is then processed through a dounce homogenizer followed by passages through 16- and 20-gauge needles. One mL of medium A is added to wash cell suspension, which is passed through a […] cell strainer and kept on ice. Next, 6 mL of 100% Percoll solution (9 parts of Percoll [GE Healthcare, Chicago, IL] and 1 part of HBSS) is added to obtain a 75% Percoll solution. The 75% Percoll cell suspension is then underlaid a layer of 25% Percoll solution containing Phenol red, which has a layer of PBS on top. The discontinuous Percoll density gradient is layered as followed: 75%, 25%, and 0% isotonic Percoll (PBS) to isolate hippocampal microglia. The gradients are then centrifuged at 4° C. for 25 minutes at 3,000 rpm in swinging buckets with minimal acceleration and deceleration and no brake. After centrifugation, the top layer containing myelin and debris (interface PBS/25% Percoll) is removed and the cellular layer at the 25%/75% interphase is collected and washed. Pilot experiments compare the gene expression of the different fractions and validated the presence of microglia in the interphase layer. The final pellet is resuspended in 350 μL of Buffer RLT from Qiagen microkit (Qiagen) to perform RNA extraction according to the manufacturer's instructions.\nExploratory experiments reveal that in microglia-enriched fractions from rat hippocampi, inflammation is returned closer to background levels at +26 hours after a dose of LPS. Thus, an earlier time point of +18 h after the LPS injection is selected to assess potential changes indicative of inflammation.\nHippocampi on both sides of the brain are collected 2 hours later (+18 hour from LPS injection) and microglia are rapidly isolated in an enriched fraction by Percoll gradient. RNA is extracted from the resulting, reconstituted cell pellet and RT-qPCR is performed. The results are shown in Table 7 as relative change in mRNA levels for each cytokine gene (Il1b, Il6, Tnfa, Nlrp3, Csf1r) normalized to the control group using the Dct method (n=8-12 per group): […]"}, "[3]": {"conditions": "LPS 500 μg/kg-challenged mice, label LPS = LPS alone, label Luma = LPS + Luma 3 mg/kg IP"}}, "data": [{"compound": "CN1CCN2c3c(cccc31)[C@@H]1CN(CCCC(=O)c3ccc(F)cc3)CC[C@@H]12", "note": "[Luma, lumateperone]", "values": [{"measurement": "Serum cytokine concentration IL-6", "setting": "[1]; mice, Luma 3 mg/kg IP alone (no LPS)", "value": 0.09, "unit": "ng/mL"}, {"measurement": "Hippocampal microglial cytokine mRNA expression IL-1b", "setting": "[2]", "value": 0.38}, {"measurement": "Hippocampal microglial cytokine mRNA expression IL-6", "setting": "[2]", "value": "−0.22"}, {"measurement": "Hippocampal microglial cytokine mRNA expression TNF-alpha", "setting": "[2]", "value": "−1.00"}, {"measurement": "Hippocampal microglial mRNA expression Csf1R", "setting": "[2]", "value": "−0.05"}, {"measurement": "Hippocampal microglial mRNA expression NLRP3", "setting": "[2]", "value": "−0.48"}]}, {"compound": "lipopolysaccharide [LPS, reference compound]", "values": [{"measurement": "Serum cytokine concentration IL-1b", "setting": "[1]; [3]", "value": 6.27, "unit": "pg/mL"}, {"measurement": "Serum cytokine concentration IL-6", "setting": "[1]; [3]", "value": 14.52, "unit": "ng/mL"}, {"measurement": "Serum cytokine concentration IL-10", "setting": "[1]; [3]", "value": 980.4, "unit": "pg/mL"}, {"measurement": "Serum cytokine concentration TNF-alpha", "setting": "[1]; [3]", "value": 335.3, "unit": "pg/mL"}, {"measurement": "Hippocampal microglial cytokine mRNA expression IL-1b", "setting": "[2]", "value": 2.82}, {"measurement": "Hippocampal microglial cytokine mRNA expression IL-6", "setting": "[2]", "value": 0.89}, {"measurement": "Hippocampal microglial cytokine mRNA expression TNF-alpha", "setting": "[2]", "value": "−0.28"}, {"measurement": "Hippocampal microglial mRNA expression Csf1R", "setting": "[2]", "value": 0.50}, {"measurement": "Hippocampal microglial mRNA expression NLRP3", "setting": "[2]", "value": 0.71}]}]}
